Structures are written as SMILES.

For the first experiment, the target named is T1, hCRTH2 receptor (Homo sapiens, UniProt Q9Y5Y4).
T1 construct: expressed in transfected cells
T1 sequence (Q9Y5Y4 1-395): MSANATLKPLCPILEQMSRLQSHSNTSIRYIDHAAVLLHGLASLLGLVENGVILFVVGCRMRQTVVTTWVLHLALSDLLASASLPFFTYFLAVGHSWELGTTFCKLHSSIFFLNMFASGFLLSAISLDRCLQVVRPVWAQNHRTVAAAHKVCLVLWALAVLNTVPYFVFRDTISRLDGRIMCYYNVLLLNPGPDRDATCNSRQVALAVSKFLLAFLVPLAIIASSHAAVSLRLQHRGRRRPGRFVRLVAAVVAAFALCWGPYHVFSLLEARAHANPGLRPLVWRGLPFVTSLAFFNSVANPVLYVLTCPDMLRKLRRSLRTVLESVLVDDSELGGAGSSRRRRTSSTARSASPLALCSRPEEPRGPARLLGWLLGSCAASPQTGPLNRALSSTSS
The experiment in a line: CRTH2 membranes radioligand binding assay ({3H}-PGD2). Conditions: {3H}-PGD2 2.5 nM; membranes of HEK 293 cells expressing recombinant hCRTH2; read-out: hCRTH2 BDG IC50. The method, then: Cells are detached from culture plates in 5 ml buffer A (5 mM Tris, 1 mM MgCl2×6 H2O, 0.1 mM PMSF, 0.1 mM phenanthroline) per plate using a police rubber and transferred into centrifugation tubes and frozen at −80° C. After thawing, the cells are centrifuged at 500 g for 5 min and then resuspended in buffer A. Cells are then fragmented by homogenization with a Polytron homogenizer for 30 s. The membrane fragments are centrifuged at 3000 g for 40 min and resuspended in membranes in buffer B (50 mM Tris, 25 mM MgCl2, 250 mM saccharose, pH 7.4) and aliquots are stored frozen.
Binding assay is performed in a total volume of 250 μl. […] For unspecific binding, PGD2 is added to the reaction mixture at 1 μM final concentration. This binding assay mix is incubated at rt for 90 min and then filtered through a GF/C filter plate. The filter is washed three times with ice cold binding buffer. Then, 40 μl per well Microscint-40 (Packard) are added and the bound radioactivity is quantified by means of Topcount (Packard).
As a reminder, the IC50 is the concentration needed to halve the response being measured. `CC(C)N(Cc1ccccc1)C(=O)C1CCc2c(c3cc(F)ccc3n2CC(=O)O)C1` (single isomer, unassigned; (-)) [(−)-[3-(Benzyl-isopropyl-carbamoyl)-6-fluoro-1,2,3,4-tetrahydro-carbazol-9-yl]-acetic acid]: the IC50 was 0.067 µM.
As for `CN(C(=O)C1(C)CCc2c(c3ccccc3n2CC(=O)O)C1)c1cccc(Cl)c1` (racemic) [Example B-10, (±)-{3-[(3-Chloro-phenyl)-methyl-carbamoyl]-3-methyl-1,2,3,4-tetrahydro-carbazol-9-yl}-acetic acid], the half-inhibitory concentration (IC50) is 0.001 µM.
`CCCC1(C(=O)Nc2cccc(F)c2)CCc2c(c3ccccc3n2CC(=O)O)C1` (racemic) [Example B-32, (±)-[3-(3-Fluoro-phenylcarbamoyl)-3-propyl-1,2,3,4-tetrahydro-carbazol-9-yl]-acetic acid]: the half-maximal inhibitory concentration (IC50) is 0.022 µM.
Same read-out and setting: next, `CN(C(=O)C1(C)CCc2c(c3ccccc3n2CC(=O)O)C1)c1ccccc1` (racemic) [Example B-01, (±)-[3-Methyl-3-(methyl-phenyl-carbamoyl)-1,2,3,4-tetrahydro-carbazol-9-yl]-acetic acid]: 0.003 µM; `CC1(C(=O)N(Cc2ccsc2)c2ccccc2)CCc2c(c3ccccc3n2CC(=O)O)C1` (racemic) [Example B-07, (±)-[3-Methyl-3-(phenyl-thiophen-3-ylmethyl-carbamoyl)-1,2,3,4-tetrahydro-carbazol-9-yl]-acetic acid]: 0.002 µM.
For the compound `CC1(C(=O)NCc2cc(F)cc(F)c2)CCc2c(c3ccccc3n2CC(=O)O)C1` (racemic) [Example B-68, (±)-[3-(3,5-Difluoro-benzylcarbamoyl)-3-methyl-1,2,3,4-tetrahydro-carbazol-9-yl]-acetic acid], the half-maximal inhibitory concentration (IC50) turned out to be 0.019 µM.
For the compound `CC1(C(=O)N(Cc2ccccc2)c2ccccc2)CCc2c(c3ccccc3n2CC(=O)O)C1` (racemic) [Example B-04, (±)-[3-(Benzyl-phenyl-carbamoyl)-3-methyl-1,2,3,4-tetrahydro-carbazol-9-yl]-acetic acid], the IC50 amounted to 0.003 µM.
Consider `O=C(O)Cn1c2c(c3ccccc31)CC(C(=O)N1CCc3ccccc31)CC2` (racemic) [Example A-39, (±)-[3-(2,3-Dihydro-indole-1-carbonyl)-1,2,3,4-tetrahydro-carbazol-9-yl]-acetic acid], for which the 50% inhibitory concentration (IC50) was determined as 0.002 µM.
The same measure, in the same setting: next, `CC(C)N(Cc1ccccc1)C(=O)C1CCc2c(c3cc(F)ccc3n2CC(=O)O)C1` (single isomer, unassigned; (+)) [(+)-[3-(Benzyl-isopropyl-carbamoyl)-6-fluoro-1,2,3,4-tetrahydro-carbazol-9-yl]-acetic acid]: 0.003 µM.

The next experiment concerns the target T1, hCRTH2 receptor. The experiment in a line: Intracellular calcium mobilization assay (FLIPR), PGD2 challenge. The format is cell-based. The settings on record: HEK-293 cells stably expressing hCRTH2; 10 nM prostaglandin D2 as agonist. The method, then:
A functional assay with cells expressing the human CRTH2 receptor may be used to detect changes in the levels of intracellular calcium concentration following compound treatment. After addition of the compound the cells are challenged with PGD2. In a Fluorescent Imaging Plate Reader (FLIPR™, Molecular Devices, Sunnyvale, Calif.) fluorescence emission is recorded during both additions, emission peak values above base level after PGD2 addition were exported, normalized to low controls (no PGD2) and high controls (no active compound). The relative values of the remaining activity were used to determine IC50 values by curve fitting the data to a single site to a four-parameter logistic sigmoid dose response curve of the equation (A+((B−A)/(1+((C/x)^D)))).
Cells (HEK-293), stably expressing the hCRTH2 receptor under the control of the cytomegalovirus promotor from a single insertion of the expression vector pcDNA5 (Invitrogen), are grown to confluency in DMEM (low glucose, Gibco) medium supplemented with 10% fetal calf serum (both Bioconcept, Switzerland) under standard mammalian cell culture conditions (37° C. in a humidified atmosphere of 5% CO2). Cells are detached from culture dishes using a dissociation buffer (0.02% EDTA in PBS, Gibco) for 1 min, and collected by centrifugation at 200 g at rt for 5 min in assay buffer (equal parts of Hank's BSS (HBSS, Bioconcept) and DMEM (low glucose, without phenol red, Gibco)). After incubation for 45 min (37° C. and 5% CO2) in the presence of 1 μM Fluo-4 and 0.04% Pluronic F-127 (both Molecular Probes), 20 mM HEPES (Gibco) in assay buffer, the cells are washed with and resuspended in assay buffer, then seeded onto 384-well FLIPR assay plates (Greiner) at 50,000 cells in 66 μl per well, and sedimented by centrifugation.
Stock solutions of test compounds are made up at a concentration of 10 mM in DMSO, and serially diluted in assay buffer to concentrations required for inhibition dose response curves. Prostaglandin D2 (Biomol, Plymouth Meeting, Pa.) is used as an agonist.
A FLIPR384 instrument (Molecular Devices) is operated according to the manufacturer's standard instructions, adding 4 μl of test compound dissolved at 10 mM in DMSO and diluted prior to the experiment in assay buffer to obtain the desired final concentration. 10 μl of 80 nM prostaglandin D2 (Biomol, Plymouth Meeting, Pa.) in assay buffer, supplemented with 0.8% bovine serum albumin (fatty acid content<0.02%, Sigma), is then added to obtain a final concentration of 10 nM and 0.1%, respectively. Changes in fluorescence are monitored before and after the addition of test compounds at λex=488 nm and λem=540 nm. Emission peak values above base level after prostaglandin D2 addition are exported after base line subtraction. Values are normalized to high-level control (no test compound added) after subtraction of base line value (no prostaglandin D2 added). The program XL1fit 3.0 (IDBS) is used to fit the data to a single site dose response curve of the equation (A+((B−A)/(1+((C/x)^D)))) and to calculate the IC50 values.
A general note: Calcium assays in cells follow changes in intracellular calcium, usually with a dye or a luminescent sensor.
For `CN(C(=O)C1(C)CCc2c(c3ccccc3n2CC(=O)O)C1)c1cccc(Cl)c1` (racemic) [Example B-10, (±)-{3-[(3-Chloro-phenyl)-methyl-carbamoyl]-3-methyl-1,2,3,4-tetrahydro-carbazol-9-yl}-acetic acid], the IC50 was determined as 0.02 µM.
Consider `CC1(C(=O)N(CCC#N)Cc2ccccc2)CCc2c(c3ccccc3n2CC(=O)O)C1` (racemic) [Example B-56, (±)-{3-[Benzyl-(2-cyano-ethyl)-carbamoyl]-3-methyl-1,2,3,4-tetrahydro-carbazol-9-yl}-acetic acid], for which the 50% inhibitory concentration (IC50) came out at 0.036 µM.
For the compound `CN(C(=O)C1(C)CCc2c(c3ccccc3n2CC(=O)O)C1)c1ccccc1` (racemic) [Example B-01, (±)-[3-Methyl-3-(methyl-phenyl-carbamoyl)-1,2,3,4-tetrahydro-carbazol-9-yl]-acetic acid], the IC50 came to 0.013 µM.
As to `CCC1(C(=O)N2CCc3ccccc32)CCc2c(c3ccccc3n2CC(=O)O)C1` (racemic) [Example B-22, (±)-[3-(2,3-Dihydro-indole-1-carbonyl)-3-ethyl-1,2,3,4-tetrahydro-carbazol-9-yl]-acetic acid], the IC50 came to 0.067 µM.
As for `CN(C(=O)C1CCc2c(c3ccccc3n2CC(=O)O)C1)c1ccccc1C(F)(F)F` (racemic) [Example A-37, (±)-{3-[Methyl-(2-trifluoromethyl-phenyl)-carbamoyl]-1,2,3,4-tetrahydro-carbazol-9-yl}-acetic acid], the IC50 stood at 0.045 µM.
Same read-out and setting: next, `O=C(O)Cn1c2c(c3cc(F)ccc31)CC(C(=O)N1CCN(c3ccc(F)cc3)CC1)CC2` (single isomer, unassigned; (-)) [(−)-{6-Fluoro-3-[4-(4-fluoro-phenyl)-piperazine-1-carbonyl]-1,2,3,4-tetrahydro-carbazol-9-yl}-acetic acid]: 0.599 µM; `CN(C(=O)C1CCc2c(c3ccccc3n2CC(=O)O)C1)C(c1ccccc1)c1ccccc1` (racemic) [Example A-42, (±)-[3-(Benzhydryl-methyl-carbamoyl)-1,2,3,4-tetrahydro-carbazol-9-yl]-acetic acid]: 0.017 µM.
On the same count and under the same terms, next, `CN(C(=O)C1CCc2c(c3cc([N+](=O)[O-])ccc3n2CC(=O)O)C1)c1ccccc1` (racemic) [(±)-[3-(Methyl-phenyl-carbamoyl)-6-nitro-1,2,3,4-tetrahydro-carbazol-9-yl]-acetic acid]: 0.011 µM.
With `O=C(O)Cn1c2c(c3cc(F)ccc31)CC(C(=O)N1CCCCCCC1)CC2` (single isomer, unassigned; (+)) [(+)-[3-(Azocane-1-carbonyl)-6-fluoro-1,2,3,4-tetrahydro-carbazol-9-yl]-acetic acid], the half-inhibitory concentration (IC50) was found to be 0.046 µM.
`O=C(O)Cn1c2c(c3cc(F)ccc31)CC(C(=O)N1CCc3ccccc31)CC2` (single isomer, unassigned; (+)) [(+)-[3-(2,3-Dihydro-indole-1-carbonyl)-6-fluoro-1,2,3,4-tetrahydro-carbazol-9-yl]-acetic acid]: the half-inhibitory concentration (IC50) turned out to be 0.028 µM.

For the origin of these results see patent US8039474B2, “2,3,4,9-tetrahydro-1H-carbazole derivatives as CRTH2 receptor antagonists” (Actelion Pharmaceutical Ltd., priority 2004, dated 2011).
